Columns and labels:
[1] = Stability of agent to water (hydrolysis) in ethanol; assay type: physicochemical; settings: water even at about 5% in ethanol
[2] = Salting in: solubility in absolute ethanol with and without egg phosphatidylcholine; assay type: physicochemical; settings: for increase in solubility or apparent solubility (co-solubilizing or salting-in) / salting in / form of apparent solubility: lipid in lipid solvent
Protocol: To determine whether phospholipids can increase the solubility or apparent solubility of a pharmacological agent such as salicylic acid acetate, both drug and lipid were co-solubilized in a lipid solvent such as absolute ethanol (USP). Five ml of this lipid solvent was able to dissolve about a maximum of 1 gr. salicylic acid acetate. A lipid such as egg phosphatidylcholine was completely dissolved in 5 ml of ethanol in a series of test tubes and to this solution crystals of the test pharmacological agent salicylic acid acetate were added gradually and dissolved. […] Any convenient temperature and pressur may be used for this procedure that will dot adversely affect the pharmacological agent or boil the lipid solvent.
Five ml of absolute ethanol was able to dissolve maximum 1 gr. salicylic acid acetate. Egg phosphatidylcholine (Hepar) 1.5 gm was completely dissolved in 5 ml of ethanol in a series of test tubes and to this solution crystals of salicylic acid acetate were added gradually and dissolved. […] To accelerate the dissolving process all test tubes containing crystals of salicylic acid acetate and lipid solvent were agitated gently in a water bath of 40° C. and cooled to about 22.5° C.+/- about 2.5° C. after crystals were completely dissolved.

SMILES | tolerance of water (hydrolysis) [1] | maximum amount dissolved in absolute ethanol [2] [gr.] | increase in solubility or apparent solubility (co-solubilizing or salting-in) [2] [%] | increase in solubility of drug (salting in) ([2]; egg phosphatidylcholine ethanol versus ethanol) | salting in / form of apparent solubility [2] | salting in / form of apparent solubility ([2]; listed as Amphoteracin B)
CC(=O)Oc1ccccc1C(=O)O [salicylic acid acetate] | do not tolerate the presence of water even at about 5% in ethanol | ~1 | ≤ 50 |  |  | 
COc1ccc2c(c1)c(CC(=O)O)c(C)n2C(=O)c1ccc(Cl)cc1 [indomethacin] |  |  | ≤ 50 | about 50% |  | 
C[C@@H]1[C@H](O)[C@@H](C)/C=C/C=C/C=C/C=C/C=C/C=C/C=C/[C@H](O[C@@H]2O[C@H](C)[C@@H](O)[C@H](N)[C@@H]2O)C[C@@H]2O[C@](O)(C[C@@H](O)C[C@@H](O)[C@H](O)CC[C@@H](O)C[C@@H](O)CC(=O)O[C@H]1C)C[C@H](O)[C@H]2C(=O)O [amphotericin B] |  |  |  |  | in the form of a complex with dissolved lipid rather than truly solubilized | similarly salted in but appears to do so in the form of complexes with lipid rather than simple solubilizing
